Measurements reported in ChEMBL document CHEMBL5500346, “Targeting EGFR degradation by autophagosome degraders” (Eur J Med Chem, 2024).
pIC50, pKd: −log10 of the molar value. Activity calls are given as the source filed them. Unless noted, no cut-off for these calls is given here.

Assays:
A549 = assay: Antiproliferative activity against human A549 cells incubated for 72 hrs by CCK8 assay; assay type: functional, cell-based; details: A549, 72 h
HCC827 = assay: Antiproliferative activity against human HCC827 cells incubated for 72 hrs by CCK8 assay; assay type: functional, cell-based; details: HCC827, 72 h
PC-9 [1] = assay: Antiproliferative activity against human PC-9 cells incubated for 72 hrs by CCK8 assay; assay type: functional, cell-based; details: PC-9, 72 h
L02 = assay: Antiproliferative activity against human HL7702 cells incubated for 72 hrs by CCK8 assay; assay type: toxicity, cell-based; details: l02, 72 h
[2] = target: T1, Microtubule-associated protein 1 light chain 3 beta/Epidermal growth factor receptor (Homo sapiens, UniProt P00533+Q9GZQ8); assay: ATTEC activity at LC3B/EGFR in human A549 cells assessed as protein degradation; assay type: cell-based
[3] = target: T1, Microtubule-associated protein 1 light chain 3 beta/Epidermal growth factor receptor; assay: ATTEC activity at LC3B/EGFR in human NCI-H1975 cells assessed as protein degradation; assay type: cell-based
[4] = target: T1, Microtubule-associated protein 1 light chain 3 beta/Epidermal growth factor receptor; assay: ATTEC activity at LC3B/EGFR in Gefitinib-resistant human PC-9 cells assessed as protein degradation; assay type: cell-based
[5] = target: T1, Microtubule-associated protein 1 light chain 3 beta/Epidermal growth factor receptor; assay: ATTEC activity at LC3B/EGFR in human HCC827 cells assessed as protein degradation at 1 uM measured after 12 hrs by Western blot analysis relative to control; assay type: cell-based
[6] = target: T1, Microtubule-associated protein 1 light chain 3 beta/Epidermal growth factor receptor; assay: ATTEC activity at LC3B/EGFR in human HCC827 cells assessed as protein degradation at 1 uM measured after 48 hrs by Western blot analysis; assay type: cell-based
[7] = target: T1, Microtubule-associated protein 1 light chain 3 beta/Epidermal growth factor receptor; assay: ATTEC activity at LC3B/EGFR in CHX-treated human HCC827 cells assessed as protein degradation at 1 uM incubated for 12 hrs by Western blot analysis; assay type: cell-based
[8] = target: T1, Microtubule-associated protein 1 light chain 3 beta/Epidermal growth factor receptor; assay: ATTEC activity at LC3B/EGFR in rapamycin-treated human HCC827 cells assessed as protein degradation by Western blot analysis; assay type: cell-based
[9] = target: T1, Microtubule-associated protein 1 light chain 3 beta/Epidermal growth factor receptor; assay: ATTEC activity at LC3B/EGFR in EBSS-treated human HCC827 cells assessed as protein degradation by Western blot analysis; assay type: cell-based
[10] = target: T1, Microtubule-associated protein 1 light chain 3 beta/Epidermal growth factor receptor; assay: ATTEC activity at LC3B/EGFR in human HCC827 cells assessed as protein degradation at 1 uM incubated for 18 hrs by global proteomic profiling analysis; assay type: cell-based
[11] = target: T1, Microtubule-associated protein 1 light chain 3 beta/Epidermal growth factor receptor; assay: Binding affinity to biotinylated LC3B/EGFR in human HCC827 cells assessed as dissociation constant BLI assay; assay type: cell-based
[12] = target: T1, Microtubule-associated protein 1 light chain 3 beta/Epidermal growth factor receptor; assay: ATTEC activity at LC3B/EGFR in human HCC827 cells assessed as increase in density of lysosomes incubated for 4 hrs by LysoTracker Red staining based analysis; assay type: cell-based
PC-9 [13] = assay: Inhibition of colony formation in human PC-9 cells incubated for 2 weeks by crystal violet staining based analysis; assay type: functional, cell-based; details: dose 0.1-10 µM
NCI-H3255 = assay: Inhibition of colony formation in human NCI-H3255 cells incubated for 2 weeks by crystal violet staining based analysis; assay type: functional, cell-based; details: dose 0.1-10 µM
[14] = Half life in Sprague-Dawley rat at 20 mg/kg, ip; assay type: ADME, organism-based; details: in vivo
[15] = Toxicity in NOD-SCID mouse bearing human PC-9 cells assessed as body weight loss at 5 to 20 mg/kg, ip administered every other day for 3 weeks; assay type: organism-based; details: in vivo, 504 h, dose 5-20 mg/kg
PC-9 [16] = assay: Anti-tumor activity against human PC-9 cells implanted in NOD-SCID mouse at 20 mg/kg, ip administered every other day for 3 weeks relative to control; assay type: functional; details: PC-9, 504 h, read-out: TGI
PC-9 [17] = assay: In vivo ATTEC activity at LC3B/EGFR in human PC-9 cells implanted in NOD-SCID mouse assessed as protein degradation at 10 mg/kg, ip administered every other day for 3 weeks by Western blot analysis; assay type: functional, organism-based
PC-9 [18] = assay: In vivo ATTEC activity at LC3B/EGFR in human PC-9 cells implanted in NOD-SCID mouse assessed as protein degradation at 20 mg/kg, ip measured after 24 hrs by Western blot analysis; assay type: functional, organism-based
[19] = Toxicity in C57BL/6 mouse assessed as body weight loss upto 200 mg/kg, ip measured after 24 hrs; assay type: organism-based; details: in vivo
[20] = Toxicity in C57BL/6 mouse assessed as lethargy upto 200 mg/kg, ip measured after 24 hrs; assay type: organism-based; details: in vivo
[21] = Toxicity in C57BL/6 mouse assessed as ataxia upto 200 mg/kg, ip measured after 24 hrs; assay type: organism-based; details: in vivo
[22] = Toxicity in C57BL/6 mouse assessed as dyspnea upto 200 mg/kg, ip measured after 24 hrs; assay type: organism-based; details: in vivo
[23] = Toxicity in C57BL/6 mouse assessed as histological change in heart upto 200 mg/kg, ip measured after 24 hrs by H and E staining based analysis; assay type: organism-based; details: in vivo
[24] = Toxicity in C57BL/6 mouse assessed as histological change in kidney upto 200 mg/kg, ip measured after 24 hrs by H and E staining based analysis; assay type: organism-based; details: in vivo
[25] = Toxicity in C57BL/6 mouse assessed as serum ALT level at 100 mg/kg, ip measured after 24 hrs (reference value: 42.554 U/L); assay type: organism-based; details: in vivo
[26] = Toxicity in C57BL/6 mouse assessed as serum AST level at 100 mg/kg, ip measured after 24 hrs (reference value: 234.682 U/L); assay type: organism-based; details: in vivo
[27] = Toxicity in C57BL/6 mouse assessed as serum GGT level at 100 mg/kg, ip measured after 24 hrs (reference value: 1.62 U/L); assay type: organism-based; details: in vivo
[28] = Toxicity in C57BL/6 mouse assessed as serum TBIL level at 100 mg/kg, ip measured after 24 hrs (reference value: 18.958 umol/L); assay type: organism-based; details: in vivo
[29] = Toxicity in C57BL/6 mouse assessed as serum DBIL level at 100 mg/kg, ip measured after 24 hrs (reference value: 7.868 umol/L); assay type: organism-based; details: in vivo
[30] = Toxicity in C57BL/6 mouse assessed as serum uric acid level at 100 mg/kg, ip measured after 24 hrs (reference value: 78.784 umol/L); assay type: organism-based; details: in vivo
[31] = Toxicity in C57BL/6 mouse assessed as serum TBIL level at 200 mg/kg, ip measured after 24 hrs (reference value: 18.958 umol/L); assay type: organism-based; details: in vivo
[32] = Toxicity in C57BL/6 mouse assessed as serum DBIL level at 200 mg/kg, ip measured after 24 hrs (reference value: 7.868 umol/L); assay type: organism-based; details: in vivo
[33] = Toxicity in C57BL/6 mouse assessed as serum TBA level at 200 mg/kg, ip measured after 24 hrs (reference value: 2.674 umol/L); assay type: organism-based; details: in vivo
[34] = Toxicity in C57BL/6 mouse assessed as serum urea level at 200 mg/kg, ip measured after 24 hrs (reference value: 18.934 mmol/L); assay type: organism-based; details: in vivo
[35] = Toxicity in C57BL/6 mouse assessed as serum creatinine level at 200 mg/kg, ip measured after 24 hrs (reference value: 32.258 umol/L); assay type: organism-based; details: in vivo
[36] = Toxicity in C57BL/6 mouse assessed as serum uric acid level at 200 mg/kg, ip measured after 24 hrs (reference value: 78.784 umol/L); assay type: organism-based; details: in vivo
[37] = Toxicity in C57BL/6 mouse assessed as change in hematological indicators upto 200 mg/kg, ip measured after 24 hrs by blood cell analysis; assay type: organism-based; details: in vivo

COc1cc2ncnc(Nc3ccc(F)c(Cl)c3)c2cc1OCCOCCOCCOCCNC(=O)COc1c(Br)cc(/C=C2\C(=O)Nc3ccc(I)cc32)cc1Br
pIC50 (A549): < 5.00 | pIC50 (HCC827): 6.56 | pIC50 (PC-9 [1]): 5.25 | Activity (L02): Non-Toxic | Activity [2]: inactive | Activity [3]: inactive | Activity [4]: inactive | Activity [5]: 68% | Activity [6]: Active | Activity [7]: inactive | Activity [8]: Active | Activity [9]: Active | Activity [10]: Active | pKd [11]: 6.15 | Activity [12]: Active | inhibition (PC-9 [13]): Dose-Dependent Effect | inhibition (NCI-H3255): Dose-Dependent Effect | half-life [14]: 10.5 h | Activity [15]: Non-Toxic | inhibition in vivo at 20 mg/kg (PC-9 [16]): 63.4% | Activity (PC-9 [17]): Active | Activity (PC-9 [18]): Active | Activity [19]: Non-Toxic | Activity [20]: Non-Toxic | Activity [21]: Non-Toxic | Activity [22]: Non-Toxic | Activity [23]: Non-Toxic | Activity [24]: Non-Toxic | Activity [25]: 65.504 U/L | Activity [26]: 229.632 U/L | Activity [27]: 1.682 U/L | Activity [28]: 17.83 µmol/L | Activity [29]: 6.434 µmol/L | Activity [30]: 44.454 µmol/L | Activity [31]: 16.068 µmol/L | Activity [32]: 6.434 µmol/L | Activity [33]: 3.062 µmol/L | Activity [34]: 19.029 mmol/L | Activity [35]: 30.848 µmol/L | Activity [36]: 49.734 µmol/L | Activity [37]: Non-Toxic
